Measurements from patent US8481459B2, “Chemical inhibitors of ethylene biosynthesis” (Academia Sinica, priority 2010, dated 2013).

System: gene expression in etiolated eto1-4 seedlings
Test: Transcriptional profiling (ATH1 GeneChip microarray) of etiolated eto1-4 seedlings
Type: in vivo, Arabidopsis thaliana
Conditions: ratio eto1-4 treated to eto1-4 (no treatment)
Method: For chemical treatments, seeds were sown on 0.5×MS agar medium supplemented with 10 μM chemicals (AVG, compounds 9393, 9370, and 7303) or DMSO (as control). Arabidopsis seeds were stratified in the dark at 4° C. for 4 days, then germinated in the dark for 3 days at 22° C. Approximately 2,000 etiolated seedlings of the wild type or eto1-4 were used to collect tissues for preparation of total RNA in each microarray experiment with Arabidopsis ATH1 GeneChip (Affymetrix). Extraction of RNA followed an established protocol (Chang, et al. (1993) Plant Mol. Biol. Rep. 11, 113-117). Total RNA (10 μg) was used to prepare biotinylated cRNA for hybridization to ATH1 GeneChip in the experiments disclosed herein. Experiments were repeated by 2 independent biological duplicates, and candidate genes present in both experiments were selected for further analysis. The MASS method was used for data analysis and normalization by all sample medium. Candidate genes were selected by the following criteria. First, genes with 1.5-fold differential expression between the wild type and eto1-4 were selected as the master gene pool, which was then used for comparison in treatments with AVG and individual exemplary compounds. Data were presented in hierarchical clustering and Venn diagram format. Agilent GeneSpring GX and Bioconductor software were used to analyze the expression profile data. Gene Ontology descriptions were generated by GeneSpring GX and further referred to the TAR GO database. Raw data are available in the GEO database (http://www.ncbi.nlm.nih.gov/geo) with Accession no. GSE20897.
The filtered and normalized expression data set from 22810 probes on the ATH1 Genechip was used for hierarchical clustering of gene expression profiles for comparison between AVG and the exemplary invention compounds in eto1-4. It was identified that 1,446 genes show at least 1.5-fold difference in expression between the WT and eto1-4 and used them as the master gene pool for clustering analysis (FIG. 7A). […] These genes likely contribute to the etiolated phenotype of eto1-4 by responding to elevated endogenous ethylene. To determine whether the exemplary compounds have specific r overlapping functions with AVG to suppress the eto1-4 phenotype, genes that are regulated by individual exemplary invention compounds and AVG for Venn diagram analysis were clustered (FIG. 7B). More than 63% of genes (356/561 for compound 9393; 389/561 for compound 9370; 399/561 for compound 7303; FIG. 7B) with expression associated with AVG were co-regulated by the exemplary invention compounds, which indicates an overlap function in suppression of the ethylene phenotype in eto1-4. […] Next genes co-regulated by all of the exemplary invention compounds and AVG were examined by performing a clustering analysis using the co-regulated genes identified in FIG. 7B: 356 (compound 9393 vs AVG), 389 (compound 9370 vs AVG) and 399 genes (compound 7303 vs AVG). It was uncovered that 276 genes were co-regulated by all of the exemplary invention compounds and AVG (FIG. 7C and Table 2). On the basis of GO descriptions generated by Gene Spring GX and TAIR database, the 276 genes were divided into subgroups related to their biological functions (Table 2). […] In addition, stress- and pathogenesis-related genes were among the co-regulated genes, possibly because ethylene is involved in both biotic and abiotic stresses.
Genes (1446 non-redundant loci) were selected by 1.5-fold differential expression between eto1-4 and WT as the master pool for analysis. These genes were used for comparison between chemical treatments by AVG and the exemplary invention compounds. The finalized 276 genes that are co-regulated by AVG and all of the exemplary invention compounds are shown. Locus ID also present in Nemhauser et al. (Nemhauser, et al. (2006) Cell 126, 467-475).

SMILES: CC1(C)CC(=O)c2cnc(NC3CCCC3)nc2C1 [Compound 9393]
- Signal Fold Change AT3G14850, unknown biological function: 0.29
- Signal Fold Change AT3G15890 protein kinase: 1.98
- Signal Fold Change AT3G16450 jacalin lectin protein: 2.09
- Signal Fold Change AT3G16470 jacalin lectin protein: 4.09
- Signal Fold Change AT3G16690, unknown biological function: 3.33
- Signal Fold Change AT3G17680, unknown biological function: 0.33
- Signal Fold Change AT3G20130 cytochrome P450: 1.72
- Signal Fold Change AT3G21770 peroxidase 30: 1.57
- Signal Fold Change AT3G22620 lipid transfer protein: 1.94
- Signal Fold Change AT3G23150 ethylene receptor, putative (ETR2): 0.15
- Signal Fold Change AT3G23800, unknown biological function: 0.46
- Signal Fold Change AT3G24670, unknown biological function: 0.32
- Signal Fold Change AT3G25710 bHLH protein: 2.27
- Signal Fold Change AT3G25730 AP2-containing transcription factor: 0.26
- Signal Fold Change AT3G25980 mitotic spindle checkpoint protein: 2.35
- Signal Fold Change AT3G27580 protein kinase: 0.48
- Signal Fold Change AT3G28290, unknown biological function: 0.29
- Signal Fold Change AT3G29250 short-chain dehydrogenase: 4.05
- Signal Fold Change AT3G30775 proline oxidase, mitochondrial: 2.13
- Signal Fold Change AT3G43270 pectinesterase protein: 0.26
- Signal Fold Change AT3G44820, response to light stimulus, phototropic-responsive NPH3 protein: 2.81
- Signal Fold Change AT3G44990 endo-xyloglucan transferase: 0.28
- Signal Fold Change AT3G45710 proton-dependent oligopeptide transport (POT) protein: 1.98
- Signal Fold Change AT3G46130 myb transcription factor (MYB48): 2.63
- Signal Fold Change AT3G46700 UDP-glucosyl transferase: 3.09
- Signal Fold Change AT3G47210, unknown biological function: 2.53
- Signal Fold Change AT3G47250, unknown biological function: 3.68
- Signal Fold Change AT3G49780 phytosulfokines 3 (PSK3): 4.97
- Signal Fold Change AT3G50660 steroid 22-alpha-hydroxylase: 4.32
- Signal Fold Change AT3G51410, unknown biological function: 0.32
- Signal Fold Change AT3G51970, unknown biological function: 2.49
- Signal Fold Change AT3G52180 protein tyrosine phosphatase: 0.32
- Signal Fold Change AT3G52920 expressed protein (defense response): 3.09
- Signal Fold Change AT3G53540, unknown biological function: 0.38
- Signal Fold Change AT3G56480, unknown biological function: 2.21
- Signal Fold Change AT3G58710 WRKY transcription factor: 2.14
- Signal Fold Change AT3G59370, unknown biological function: 2.91
- Signal Fold Change AT3G59710 short-chain dehydrogenase: 0.39
- Signal Fold Change AT3G59900, unknown biological function: 0.43
- Signal Fold Change AT3G60520, unknown biological function: 0.27
- Signal Fold Change AT3G61160 shaggy-related protein kinase beta/ASK-beta (ASK2): 3.26
- Signal Fold Change AT4G00730 anthocyaninless2: 0.55
- Signal Fold Change AT4G01410, unknown biological function: 0.40
- Signal Fold Change AT4G03140 short-chain dehydrogenase: 0.41
- Signal Fold Change AT4G08300, unknown biological function: 3.06
- Signal Fold Change AT4G09570 calcium-dependent protein kinase: 0.36
- Signal Fold Change AT4G10910, unknown biological function: 4.86
- Signal Fold Change AT4G11190 disease resistance-responsive protein: 5.56
- Signal Fold Change AT4G11280 ACC synthase 6: 1.87
- Signal Fold Change AT4G11310 cysteine proteinase: 8.01
- Signal Fold Change AT4G12080, unknown biological function: 1.88
- Signal Fold Change AT4G12410 auxin-responsive protein: 2.76
- Signal Fold Change AT4G12480 lipid transfer protein: 0.20
- Signal Fold Change AT4G13210, unknown biological function: 0.29
- Signal Fold Change AT4G15550 UDP-glucose:indole-3-acetate beta-D-glucosyltransferase: 0.36
- Signal Fold Change AT4G15920, unknown biological function: 13.52
- Signal Fold Change AT4G17220 expressed protein (cytoskeleton organization and biogenesis): 2.49
- Signal Fold Change AT4G18340 glycosyl hydrolase: 2.57
- Signal Fold Change AT4G23410 senescence-associated protein: 1.97
- Signal Fold Change AT4G25780, unknown biological function: 9.02
- Signal Fold Change AT4G26010 peroxidase: 0.45
- Signal Fold Change AT4G28085, unknown biological function: 2.86
- Signal Fold Change AT4G31000, unknown biological function: 0.55
- Signal Fold Change AT4G32920, unknown biological function: 2.39
- Signal Fold Change AT4G34560, unknown biological function: 2.00
- Signal Fold Change AT4G34760 auxin-responsive protein: 0.20
- Signal Fold Change AT4G35060 copper chaperone: 3.14
- Signal Fold Change AT4G35150, unknown biological function: 0.32
- Signal Fold Change AT4G36520, unknown biological function: 2.71
- Signal Fold Change AT4G37220 stress-responsive protein: 7.29
- Signal Fold Change AT4G38690, signal transduction, 1-phosphatidylinositol: 2.55
- Signal Fold Change AT4G39210 ADP-glucose pyrophosphorylase: 0.44
- Signal Fold Change AT4G39800 inositol-3-phosphate synthase isozyme 1: 2.16
- Signal Fold Change AT4G39840, unknown biological function: 0.37
- Signal Fold Change AT5G01210, unknown biological function: 0.33
- Signal Fold Change AT5G01300, unknown biological function: 1.40
- Signal Fold Change AT5G02260, cell wall organization and biogenesis, expansin (EXP9): 0.16
- Signal Fold Change AT5G02540 short-chain dehydrogenase: 0.17
- Signal Fold Change AT5G03160 DNAJ heat shock N-terminal domain-containing protein: 1.90
- Signal Fold Change AT5G04080, unknown biological function: 2.48
- Signal Fold Change AT5G05180, unknown biological function: 1.79
- Signal Fold Change AT5G06200, unknown biological function: 1.94
- Signal Fold Change AT5G08240, unknown biological function: 1.79
- Signal Fold Change AT5G08260 serine carboxypeptidase S10 protein: 0.50
- Signal Fold Change AT5G08370 alpha-galactosidase: 2.77
- Signal Fold Change AT5G09980 expressed protein (defense response): 0.35
- Signal Fold Change AT5G10720 sensory transduction histidine kinase: 0.48
- Signal Fold Change AT5G11540, unknown biological function: 5.32
- Signal Fold Change AT5G12170, response to cadmium ion, expressed protein: 0.36
- Signal Fold Change AT5G13870 endo-xyloglucan transferase: 0.27
- Signal Fold Change AT5G13910 AP2/EREBP-like transcription factor: 0.46
- Signal Fold Change AT5G14780 formate dehydrogenase: 0.44
- Signal Fold Change AT5G14920 gibberellin-regulated protein: 0.35
- Signal Fold Change AT5G15290, unknown biological function: 2.43
- Signal Fold Change AT5G15530 biotin carboxyl carrier protein 2: 0.54
- Signal Fold Change AT5G15830 bZIP transcription factor protein: 3.94
- Signal Fold Change AT5G18470, unknown biological function: 0.13
- Signal Fold Change AT5G18670 beta-amylase: 0.50
- Signal Fold Change AT5G18860, unknown biological function: 2.02
- Signal Fold Change AT5G18970, unknown biological function: 2.49
- Signal Fold Change AT5G19890 peroxidase: 0.13
- Signal Fold Change AT5G19930, unknown biological function: 1.64
- Signal Fold Change AT5G20410 monogalactosyldiacylglycerol synthase: 2.77
- Signal Fold Change AT5G22310, unknown biological function: 0.37
- Signal Fold Change AT5G22860 serine carboxypeptidase S28 protein: 2.63
- Signal Fold Change AT5G23750, unknown biological function: 3.60
- Signal Fold Change AT5G24870, unknown biological function: 2.16
- Signal Fold Change AT5G25140 cytochrome P450: 4.21
- Signal Fold Change AT5G25160 zinc finger (C2H2 type) protein: 2.60
- Signal Fold Change AT5G25190 ethylene-responsive element-binding protein: 0.32
- Signal Fold Change AT5G34940, unknown biological function: 0.49
- Signal Fold Change AT5G37300, unknown biological function: 3.86
- Signal Fold Change AT5G38930, unknown biological function: 0.33
- Signal Fold Change AT5G39860 bHLH protein: 2.39
- Signal Fold Change AT5G41900 hydrolase: 2.67
- Signal Fold Change AT5G44410, unknown biological function: 3.37
- Signal Fold Change AT5G44580, unknown biological function: 0.22
- Signal Fold Change AT5G46890 lipid transfer protein: 3.64
- Signal Fold Change AT5G47240, unknown biological function: 3.96
- Signal Fold Change AT5G47330 palmitoyl protein thioesterase protein: 2.52
- Signal Fold Change AT5G47450 major intrinsic protein: 2.24
- Signal Fold Change AT5G47950, unknown biological function: 1.93
- Signal Fold Change AT5G48490 lipid transfer protein: 9.12
- Signal Fold Change AT5G48900, unknown biological function: 0.55
- Signal Fold Change AT5G49900, unknown biological function: 2.24
- Signal Fold Change AT5G50720 ABA-responsive protein (HVA22e): 2.52
- Signal Fold Change AT5G52120 SKP1 interacting partner 3 protein: 5.39
- Signal Fold Change AT5G53190, unknown biological function: 4.35
- Signal Fold Change AT5G53830, unknown biological function: 0.40
- Signal Fold Change AT5G56320, cell wall organization and biogenesis, expansin (EXP14): 3.15
- Signal Fold Change AT5G58660, unknown biological function: 0.34
- Signal Fold Change AT5G59540 oxidoreductase: 0.44
- Signal Fold Change AT5G63450 cytochrome P450: 6.43
- Signal Fold Change AT5G63650 serine/threonine protein kinase: 0.42
- Signal Fold Change AT5G65970 seven transmembrane MLO protein: 2.60
- Signal Fold Change AT5G66310, microtubule-based movement, kinesin motor protein: 0.48
- Signal Fold Change AT5G66400 dehydrin (RAB18): 1.09
- Signal Fold Change AT5G66440, unknown biological function: 0.30
- Signal Fold Change AT5G66460 (1-4)-beta-mannan endohydrolase: 0.51
- Signal Fold Change AT5G66780, unknown biological function: 0.78
